IC50 data for six molecules are collected here from US20260199323A1, “LIGAND COMPOUNDS FOR E3 UBIQUITIN LIGASE, PROTEIN DEGRADERS DEVELOPED ON BASIS OF LIGAND COMPOUNDS, AND USES THEREOF” (GLUETACS THERAPEUTICS (SHANGHAI) CO., LTD., priority 2021, published 2026).

Where two headings read alike, the source gives them in different places.

In one assay the test system is CCRF-CEM. Kind of assay: CCK-8 tumor cell proliferation, CCRF-CEM. As to conditions: Homo sapiens, CCRF-CEM, read-out: IC50 inhibiting proliferation of tumor cells, CCRF-CEM. The class given is cell-based, Human. A digest of the protocol: (§1)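 Ten-point titrations (10 μM highest, 5-fold steps) were applied to cells 24 h after seeding. After treatment at 37 °C, 5% CO2, cell viability was read with CCK-8 and IC50 values were computed from the resulting inhibition curves.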

In the next assay the test system is Hep3B2.7-1. As to the kind of experiment: CCK-8 tumor cell proliferation, Hep3B2.7-1. The class given is cell-based, Human. As to conditions: Homo sapiens. As for the experimental part:
(§2) The tumor cells used herein were cultured in a cell culture medium listed in table 4 at 37° C. in an incubator with 5% CO2. Prior to experimentation, all cells used were correctly identified by STR profiling, and tested negative for mycoplasma through routine screenings.
(§3) IC50 values of the compounds of the present disclosure (including the compounds in Tables 1 and 3, and compounds of examples) were measured using the Meilun Cell Counting Kit-8 kit from Dalian Meilun Biotech Co., Ltd. Assay details are as follows: tumor cells were seeded in a 96-well plate at a density listed in Table 5. After 24 h, 100 μL of the inoculated cells were treated with 0.5 μL of the compounds of the present disclosure (including the compounds in Tables 1 and 3, and compounds of examples) at 10 different successively decreasing concentrations (starting at the highest concentration of 10 μM; 5-fold serial dilutions). After the cells were treated with the compounds of the present disclosure for a period of time, the cell viability detection reagent was added to the culture medium for cell viability assessment according to the instructions provided with the CCK-8 kit. […] The growth inhibition of the compounds of the present disclosure on cells was plotted by Prism Graphpad software, and the IC50 values of the compounds of the present disclosure were calculated therefrom.

Another assay deals with MM.1S. As to the kind of experiment: CCK-8 tumor cell proliferation, MM.1S. Type of assay: cell-based. As to conditions: Homo sapiens, MM1.S; Table 18, FAK inhibitor based; MM.1S; read-out: IC50 inhibiting proliferation of tumor cells, MM.1S. A digest of the protocol: as §1
Another assay concerns SW620. Kind of assay: CCK-8 tumor cell proliferation, SW620. The class given is cell-based, Human. As to conditions: Homo sapiens, SW-620; Table 18, FAK inhibitor based; SW620; read-out: IC50 inhibiting proliferation of tumor cells, SW620. A digest of the protocol: as §1
The test system of another assay is CAL-62. As to the kind of experiment: CCK-8 tumor cell proliferation, CAL-62. Type of assay: cell-based, Human. The conditions noted are these: Homo sapiens; Table 18, FAK inhibitor based; CAL-62; read-out: IC50 inhibiting proliferation of tumor cells, CAL-62. Summed up:
as §1

A further assay relates to Kasumi-1. As to the kind of experiment: CCK-8 tumor cell proliferation, Kasumi-1. Type of assay: cell-based, Human. The conditions noted are these: Homo sapiens, Kasumi-1, read-out: IC50 inhibiting proliferation of tumor cells, Kasumi-1. As for the experimental part: as §2, §3
The subject of the next assay is MM.1R. Kind of assay: CCK-8 tumor cell proliferation, MM.1R. The class given is cell-based. The conditions noted are these: Table 22, NTRK inhibitor based, read-out: IC50 inhibiting proliferation of tumor cells, MM.1R. Here is the method: as §2, §3
In another assay the test system is Jurkat. As to the kind of experiment: CCK-8 tumor cell proliferation, Jurkat. The class given is cell-based, Human. As to conditions: Homo sapiens, read-out: IC50 inhibiting proliferation of tumor cells, Jurkat. A digest of the protocol: as §1
The mark [1] stands for this setting: Table 22, NTRK inhibitor based, HEP3B2.7-1, read-out: IC50 inhibiting proliferation of tumor cells, HEP3B2.7-1.
[2] abbreviates: Table 19, IRAK4 inhibitor based, Hep3B2.7-1, read-out: IC50 inhibiting proliferation of tumor cells, Hep3B2.7-1.
The mark [3] stands for this setting: Table 19, IRAK4 inhibitor based.

As for `CNC(=O)c1ccccc1Nc1cc(Nc2cc(C)c(C3CCN(Cc4ccc5c(c4)CN(C4CCC(=O)NC4=O)C5=O)CC3)cc2OC(C)C)ncc1C(F)(F)F` (stereo not drawn) [GT-04078, 2-((2-((4-(1-((2-(2,6-dioxopiperidin-3-yl)-1-oxoisoindolin-5-yl)methyl)piperidin-4-yl)-2-isopropoxy-5-methylphenyl)amino)-5-(trifluoromethyl)pyridin-4-yl)amino)-N-methylbenzamide], the IC50 in the assay with CCRF-CEM (Table 18, FAK inhibitor based) is less than 0.05 µM; in the assay on Hep3B2.7-1 (Table 18, FAK inhibitor based, HEP3B2.7-1, read-out: IC50 inhibiting proliferation of tumor cells, HEP3B2.7-1), less than 0.05 µM; in the assay with MM.1S it was less than 0.05 µM; with SW620 it was 0.1 to 0.5 µM; in the assay with CAL-62, less than 0.05 µM.

For the molecule `O=C1CCC(N2Cc3cc(CN4CCN(c5cccc(-c6cnn7ccc(N8CCC[C@@H]8c8cc(F)ccc8F)nc67)n5)CC4)ccc3C2=O)C(=O)N1` (stereo partly drawn) [GT-04262, 3-(5-((4-(6-(5-((R)-2-(2,5-difluorophenyl)pyrrolidin-1-yl)pyrazolo[1,5-a]pyrimidin-3-yl)pyridin-2-yl)piperazin-1-yl)methyl)-1-oxoisoindolin-2-yl)piperidine-2,6-dione], the IC50 was less than 0.05 µM in the assay with CCRF-CEM (Table 22, NTRK inhibitor based); less than 0.05 µM in the assay with Hep3B2.7-1 (setting [1]); 0.1 to 0.5 µM with Kasumi-1 (Table 22, NTRK inhibitor based); less than 0.05 µM in the assay with MM.1R; 0.1 to 0.5 µM in the assay with Jurkat (Table 22, NTRK inhibitor based).

As to `O=C1CCC(N2Cc3c(ccc(CN4CCN(c5cccc(-c6cnn7ccc(N8CCC[C@@H]8c8cc(F)ccc8F)nc67)n5)CC4)c3F)C2=O)C(=O)N1` (stereo partly drawn) [GT-04263, 3-(5-((4-(6-(5-((R)-2-(2,5-difluorophenyl)pyrrolidin-1-yl)pyrazolo[1,5-a]pyrimidin-3-yl)pyridin-2-yl)piperazin-1-yl)methyl)-4-fluoro-1-oxoisoindolin-2-yl)piperidine-2,6-dione], the IC50 in the assay with CCRF-CEM (Table 22, NTRK inhibitor based) is 0.05 to 0.1 µM; with Hep3B2.7-1 (setting [1]), less than 0.05 µM; in the assay on Kasumi-1 (Table 22, NTRK inhibitor based) it was 0.5 to 1 µM; with MM.1R, less than 0.05 µM; with Jurkat (Table 22, NTRK inhibitor based), 0.1 to 0.5 µM.

As to `O=C1CCC(N2Cc3cc(CN4CCN(c5ccc(-n6cc(NC(=O)c7coc(-c8ccnc(NCC(F)(F)F)c8)n7)c(C(F)F)n6)cc5)CC4)ccc3C2=O)C(=O)N1` (stereo not drawn) [GT-04267, N-(3-(difluoromethyl)-1-(4-(4-((2-(2,6-dioxopiperidin-3-yl)-1-oxoisoindolin-5-yl)methyl)piperazin-1-yl)phenyl)-1H-pyrazol-4-yl)-2-(2-((2,2,2-trifluoroethyl)amino)pyridin-4-yl)oxazole-4-carboxamide], the IC50 with Hep3B2.7-1 (setting [2]) was in the range of 0.1 to 0.5 µM; in the assay on Kasumi-1 (setting [3]) it was 0.1 to 0.5 µM; with Jurkat (setting [3]) it was 0.5 to 1 µM.

`O=C1CCC(N2Cc3c(ccc(CN4CCN(c5ccc(-n6cc(NC(=O)c7coc(-c8ccnc(NCC(F)(F)F)c8)n7)c(C(F)F)n6)cc5)CC4)c3F)C2=O)C(=O)N1` (stereo not drawn) [GT-04268, N-(3-(difluoromethyl)-1-(4-(4-((2-(2,6-dioxopiperidin-3-yl)-4-fluoro-1-oxoisoindolin-5-yl)methyl)piperazin-1-yl)phenyl)-1H-pyrazol-4-yl)-2-(2-((2,2,2-trifluoroethyl)amino)pyridin-4-yl)oxazole-4-carboxamide]: the IC50 in the assay with Hep3B2.7-1 (setting [2]) was 0.5 to 1 µM; with Kasumi-1 (setting [3]), 0.1 to 0.5 µM; in the assay with Jurkat (setting [3]), 0.5 to 1 µM.

For the molecule `O=C1CCC(N2Cc3cc(CN4CCN(c5ccc(-n6cc(NC(=O)c7coc(-c8ccnc(NCC(F)(F)F)c8)n7)c(C(F)F)n6)cc5)CC4)cc(F)c3C2=O)C(=O)N1` (stereo not drawn) [GT-04270, N-(3-(difluoromethyl)-1-(4-(4-((2-(2,6-dioxopiperidin-3-yl)-7-fluoro-1-oxoisoindolin-5-yl)methyl)piperazin-1-yl)phenyl)-1H-pyrazol-4-yl)-2-(2-((2,2,2-trifluoroethyl)amino)pyridin-4-yl)oxazole-4-carboxamide], the values for the IC50 with Hep3B2.7-1 (setting [2]), with Kasumi-1 (setting [3]) and in the assay on Jurkat (setting [3]) were 0.5 to 1 µM, 0.1 to 0.5 µM and 0.1 to 0.5 µM, respectively.
